Assays:
[1] = molecular target: LjKAI2b (Lotus japonicus, UniProt I3S3D1, W158F); assay: differential scanning fluorimetry; intrinsic tryptophan fluorescence; assay type: binding; settings: SYPRO Tangerine; response like wild-type LjKAI2a
[2] = molecular target: LjKAI2b (Lotus japonicus, UniProt I3S3D1, W158F/M161L/L191S); assay: as above; assay type: binding; settings: SYPRO Tangerine; shift from 25 uM
Text: differential scanning fluorimetry; intrinsic tryptophan fluorescence on LjKAI2b | LjKAI2b^[…],[…],F158 gained a strong response to GR24^ent-5DS

Chain of LjKAI2b (Lotus japonicus, UniProt I3S3D1, W158F/M161L/L191S) (I3S3D1 entry or part of it W158F/M161L/L191S): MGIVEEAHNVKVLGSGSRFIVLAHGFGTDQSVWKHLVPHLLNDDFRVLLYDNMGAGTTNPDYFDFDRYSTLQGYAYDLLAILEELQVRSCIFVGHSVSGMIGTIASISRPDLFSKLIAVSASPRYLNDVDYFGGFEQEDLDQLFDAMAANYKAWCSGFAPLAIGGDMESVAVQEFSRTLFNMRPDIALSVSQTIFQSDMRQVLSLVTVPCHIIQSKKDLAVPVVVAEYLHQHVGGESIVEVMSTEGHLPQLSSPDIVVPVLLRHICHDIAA
Chain of LjKAI2b (Lotus japonicus, UniProt I3S3D1, W158F) (I3S3D1 entry or part of it W158F): as the sequence (I3S3D1 entry or part of it W158F/M161L/L191S) above, with L161M, S191L counted along it

## CC1=C[C@@H](O/C=C2/C(=O)O[C@H]3c4ccccc4C[C@@H]23)OC1=O (racemic) [GR24^ent-5DS]
[1]
  differential scanning fluorimetry; intrinsic tryptophan fluorescence: LjKAI2b^F158 recapitulated the response of LjKAI2a to GR24^ent-5DS
[2]
  differential scanning fluorimetry; intrinsic tryptophan fluorescence: LjKAI2b^L161,S191,F158 gained a strong response to GR24^ent-5DS
